One test has as its target T1, UGT1A6 (Homo sapiens, UniProt P19224).
T1 construct: tissue Corning Life Sciences 452156; host or cells: pooled human liver microsomes
T1 sequence (P19224 27-532): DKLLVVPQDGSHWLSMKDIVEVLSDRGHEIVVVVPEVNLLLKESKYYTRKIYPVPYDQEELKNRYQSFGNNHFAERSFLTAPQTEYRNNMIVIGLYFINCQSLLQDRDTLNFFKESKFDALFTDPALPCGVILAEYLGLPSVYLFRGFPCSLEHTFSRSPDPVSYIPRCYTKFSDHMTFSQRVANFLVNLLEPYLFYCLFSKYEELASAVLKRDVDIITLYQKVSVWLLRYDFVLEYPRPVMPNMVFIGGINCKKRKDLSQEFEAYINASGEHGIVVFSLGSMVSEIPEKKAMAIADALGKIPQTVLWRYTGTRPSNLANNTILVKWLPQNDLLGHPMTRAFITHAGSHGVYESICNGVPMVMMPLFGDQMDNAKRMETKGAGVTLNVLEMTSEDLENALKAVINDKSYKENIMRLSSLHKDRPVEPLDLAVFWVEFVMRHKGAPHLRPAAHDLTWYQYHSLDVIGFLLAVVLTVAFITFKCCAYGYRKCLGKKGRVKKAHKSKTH
The test can be described thus: Inhibition of UGT1A6 (serotonin glucuronidation) in human liver microsomes. Format: in vitro ADME. The protocol: (§1) Their IC50 values were compared to that of sauchinone. […] UGT-mediated activities in the presence of sauchinone as an inhibitor were expressed as percentages of corresponding control values (in absence of sauchinone). From percentages of control activity versus inhibitor concentrations, a sigmoid shaped curve was fitted to the data and IC50 as an enzyme inhibition parameter was calculated by fitting the Hill equation to the data using GraphPad Prism 5 (GraphPad Software Inc., San Diego, CA, USA).
(In general: Liver microsomes are a subcellular fraction often used to study metabolism.)

Another test has as its target T2, UGT2B7 (Homo sapiens, UniProt P16662).
T2 sequence (P16662 24-529): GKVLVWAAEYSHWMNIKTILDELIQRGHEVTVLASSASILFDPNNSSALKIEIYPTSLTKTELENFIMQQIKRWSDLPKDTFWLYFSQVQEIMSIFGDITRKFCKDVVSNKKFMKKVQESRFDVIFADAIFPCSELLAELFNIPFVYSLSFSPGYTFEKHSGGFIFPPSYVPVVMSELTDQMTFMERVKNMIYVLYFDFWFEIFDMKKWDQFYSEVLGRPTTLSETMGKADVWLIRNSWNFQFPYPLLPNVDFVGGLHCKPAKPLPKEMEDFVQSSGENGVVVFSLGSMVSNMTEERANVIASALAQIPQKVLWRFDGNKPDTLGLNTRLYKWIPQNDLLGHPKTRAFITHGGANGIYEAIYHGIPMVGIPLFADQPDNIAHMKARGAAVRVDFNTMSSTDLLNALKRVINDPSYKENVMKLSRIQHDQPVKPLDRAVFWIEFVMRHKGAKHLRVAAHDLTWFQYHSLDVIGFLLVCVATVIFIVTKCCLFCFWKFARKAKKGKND
Put plainly: Inhibition of UGT2B7 (zidovudine glucuronidation) in human liver microsomes. The arrangement: tissue Corning Life Sciences 452156; host or cells: pooled human liver microsomes. Format: in vitro ADME. The protocol:
as §1

The IC50 is the concentration needed to halve the response being measured. A higher IC50 goes with a need for much substance. Compound `Oc1cccc2ccccc12` [1-Naphthol] registered an IC50 against UGT1A6 of 35.2 µM.

At UGT2B7, `O=C1Nc2ccc(Cl)cc2[C@@](C#CC2CC2)(C(F)(F)F)O1` [Efavirenz] showed an IC50 of 75.4 µM.

These data come from publication PMC6017115, “Inhibitory Effect of Sauchinone on UDP-Glucuronosyltransferase (UGT) 2B7 Activity” (Molecules : A Journal of Synthetic Chemistry and Natural …, 2018).
